Blank lines part the entries; values can stand above or below the compound they belong to.
What was measured:
[1] = biological target: T1, 5-HT1A receptors (Rattus norvegicus, UniProt P19327); assay: 5-HT1A receptor binding ([3H]-8-OH-DPAT displacement, rat hippocampus homogenate); set-up: species or system rat (male Sprague Dawley); conditions: [3H]-8-OH-DPAT 1.0-1.5 nM, 30° C., 15 min, pH 7.4, read-out: Affinity for 5-HT1A receptors, Ki
T1 construct: The Hippocampi of these animals were homogeneized in 10 volumes of ice cold TRIS buffer; from tissue; host or cells: rat hippocampus (male Sprague Dawley), homogenate
T1 sequence (P19327 1-422): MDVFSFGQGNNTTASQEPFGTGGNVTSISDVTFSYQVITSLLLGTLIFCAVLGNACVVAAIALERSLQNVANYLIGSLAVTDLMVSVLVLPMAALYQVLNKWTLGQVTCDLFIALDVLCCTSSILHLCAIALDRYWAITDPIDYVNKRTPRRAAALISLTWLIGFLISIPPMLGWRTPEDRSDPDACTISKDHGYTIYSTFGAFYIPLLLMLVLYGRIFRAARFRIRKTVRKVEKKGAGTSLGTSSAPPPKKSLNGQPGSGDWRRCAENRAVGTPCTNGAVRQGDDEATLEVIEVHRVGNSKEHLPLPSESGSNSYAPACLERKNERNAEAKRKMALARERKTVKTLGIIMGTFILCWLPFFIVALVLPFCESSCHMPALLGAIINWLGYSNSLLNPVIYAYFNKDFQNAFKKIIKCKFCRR
Experimental: (§1) Receptor binding studies on 5-HT1A and 5-HT2 receptors were carried out to determine the affinity of the test compounds.
Rats (male Sprague Dawley, 200-250 g) were used. The Hippocampi of these animals were homogeneized in 10 volumes of ice cold TRIS buffer (pH 7.4). The homogenate was diluted 1:400 (w:v) in the same buffer to have a final protein concentration of about 200 μg/mL, filtered and incubated at 37° C. for 10 min, before use.
Displacement experiments were performed by incubating the homogenate (980 μL) in the presence of [^3 H]-8OH-DPAT (1.0-1.5 nM) (10 μL) and of different concentrations of the test compounds dissolved in the test buffer (10 μL), at 30° C. for 15 min (final volume: 1 mL).
Non specific binding was determined in the presence of 100 μM 5-HT (10 μL). The separation of [3H]-8-OH-DPAT, free from that bound to the receptor, was carried out by the filtration technique (GF/B filters, Whatman). The radioactivity present was counted by liquid scintillation spectrometry.
(§2) The affinity values (Ki) for the compounds were obtained by a non linear least squares regression analysis on the basis of a one binding site model. The values were corrected on the basis of the radioligand occupancy on the receptors according to the equation: Ki=IC50 /(1+[C]/KD),where [C] and KD represent the concentration and the dissociation constant, respectively, of the radioligand used ([^3 H]-8-OH-DPAT).

[2] = biological target: T2, 5-HT2 receptors (Rattus norvegicus, UniProt P14842); assay: 5-HT2 receptor binding ([3H]-Ketanserine displacement, rat cerebral cortex); set-up: species or system rat (male Sprague Dawley); conditions: [3H]-Ketanserine 0.5-1.0 nM, 37° C., 10 min, pH 7.4, read-out: Affinity for 5-HT2 receptors, Ki
T2 construct: Cerebral cortices were homogenized in 10 volumes of ice cold 0.32M sucrose; from tissue; host or cells: rat cerebral cortex (male Sprague Dawley), membrane preparation
T2 sequence (P14842 whole entry): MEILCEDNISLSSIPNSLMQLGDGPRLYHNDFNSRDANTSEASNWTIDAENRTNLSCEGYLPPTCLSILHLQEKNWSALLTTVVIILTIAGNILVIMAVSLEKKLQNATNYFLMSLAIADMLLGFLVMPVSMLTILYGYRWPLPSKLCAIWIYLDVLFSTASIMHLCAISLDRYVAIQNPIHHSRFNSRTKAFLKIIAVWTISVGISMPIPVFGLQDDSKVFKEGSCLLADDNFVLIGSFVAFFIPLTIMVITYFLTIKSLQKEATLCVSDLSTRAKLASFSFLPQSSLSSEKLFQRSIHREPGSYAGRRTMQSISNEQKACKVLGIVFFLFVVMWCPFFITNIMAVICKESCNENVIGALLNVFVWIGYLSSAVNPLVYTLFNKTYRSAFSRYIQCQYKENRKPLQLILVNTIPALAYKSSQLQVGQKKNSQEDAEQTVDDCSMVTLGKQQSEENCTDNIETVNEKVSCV
Experimental: as §1
Rats (male Sprague Dawley, 200-250 g) were used. Cerebral cortices were homogenized in 10 volumes of ice cold 0.32M sucrose. After the centrifugation of the homogenate (1,000×g for 10 min) the supernatant was then recentrifuged at 48,000×g for 15 min. The resulting pellet was resuspended in 10 volumes of 50 mM TRIS buffer (pH 7.4), incubated at 37° C. for 10 min and recentrifuged at 48,000×g for 15 min. The residue was then resuspended in 10 volumes of 50 mM TRIS buffer (pH 7.4).
The tissue was diluted 1:100 (w:v) in 50 mM TRIS buffer (pH 7.4) to have a final protein concentration of about 200 μg/mL.
Displacement experiments were performed by incubating the homogenate (980 μL) in the presence of [^3 H]-Ketanserine (0.5-1.0 nM) (10 μL) and of different concentrations of the test compounds dissolved in the assay buffer (10 μL), at 37° C. for 10 min (final volume: 1 mL).
Non specific binding was determined in the presence of 100 μM Methysergide (10 μL). The separation of [^3 ]-Ketanserine free from that bound to the receptor was carried by the filtration technique (GF/B filters, Whatman). The radioactivity present was counted by liquid scintillation spectrometry.
as §2, with “by” for “by a”, “model. These” for “model. The”, “Ki=IC50 /(1+[C]/KD), where” for “Ki=IC50 /(1+[C]/KD),where”, “([^3 H]-Ketanserine).” for “([^3 H]-8-OH-DPAT).”

Ki [1]: 1 nM
Structure (SMILES): COc1ccc2[nH]cc(CC3=CCCN(CCNC(=O)c4cccs4)C3)c2c1 [Compound 17, 5-methoxy-3-[N-(2-(2-thiophene-carboxamide)-ethyl)-1,2,5,6-tetrahydro-pyridin-3-ylmethyl]-1H-indole]

Structure (SMILES): COc1ccc2[nH]cc(CC3=CCCN(CCc4ccc(N)cc4)C3)c2c1 [Compound 13, 5-methoxy-3-[N-(2-(4-amino-phenyl)-ethyl)-1,2,5,6-tetrahydro-pyridin-3-ylmethyl]-1H-indole]
Ki [2]: 50 nM
Ki [1]: 100 nM

Structure (SMILES): COc1ccc2[nH]cc(CC3=CCCN(CCCc4ccc(F)cc4)C3)c2c1 [Compound 15, 5-methoxy-3-[N-(3-(4-fluoro-phenyl)-propyl)-1,2,5,6-tetrahydro-pyridin-3-ylmethyl]-1H-indole]
Ki [2]: 10 nM
Ki [1]: 10 nM

Structure (SMILES): COc1ccc2[nH]cc(CC3=CCCN(CCCC(=O)c4cccs4)C3)c2c1 [Compound 32, 5-methoxy-3-[N-(4-(2-thienyl)-4-oxo-butyl)-1,2,5,6-tetrahydro-pyridin-3-ylmethyl]-1H-indole]
Ki [2]: 10 nM
Ki [1]: 30 nM

Structure (SMILES): COc1ccc2[nH]cc(CC3=CCCN(CCOc4ccc(F)cc4)C3)c2c1 [Compound 2, 5-methoxy-3-[N-(4'-fluoro-phenoxy-ethyl)-1,2,5,6-tetrahydro-pyridin-3-yl-methyl]-1H-indole]
Ki [2]: 50 nM
Ki [1]: 10 nM

Structure (SMILES): COc1ccc2[nH]cc(CC3=CCCN(C)C3)c2c1 [Compound 1, 5-methoxy-3-(N-methyl-1,2,5,6-tetrahydro-pyridin-3-yl-methyl)-1H-indole]
Ki [1]: 35 nM

Structure (SMILES): COc1ccc2[nH]cc(CC3=CCCN(CCCCc4ccc(F)cc4)C3)c2c1 [Compound 14, 5-methoxy-3-[N-(4-(4-fluoro-phenyl)-butyl)-1,2,5,6-tetrahydro-pyridin-3-ylmethyl]-1H-indole]
Ki [2]: 100 nM
Ki [1]: 80 nM

Structure (SMILES): COc1ccc2[nH]cc(CC3=CCCN(CCC(=O)c4ccc(F)cc4)C3)c2c1 [Compound 11, 5-methoxy-3-[N-(3-(4-fluoro-phenyl)-3-oxo-propyl)-1,2,5,6-tetrahydro-pyridin-3-ylmethyl]-1H-indole]
Ki [2]: 20 nM
Ki [1]: 30 nM

Structure (SMILES): COc1ccc2[nH]cc(CC3=CCCN(CCCC(=O)c4ccc(F)cc4)C3)c2c1 [Compound 9, 5-methoxy-3-[N-(4-(4-fluoro-phenyl)-4-oxo-butyl)-1,2,5,6-tetrahydro-pyridin-3-ylmethyl]-1H-indole]
Ki [2]: 15 nM
Ki [1]: 30 nM

Ki [1]: 1 nM
Structure (SMILES): COc1ccc2[nH]cc(CC3=CCCN(CCNC(=O)c4ccc(F)cc4)C3)c2c1 [Compound 16]

From US5834493A, “Indole derivatives as 5-HT1A and/or 5-HT2 ligands” (priority 1993, dated 1998)
